According to PubChem BioAssay (NCI):
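How tested: cells in 96-well plates exposed to compound for 48 hours at five concentrations. TGI: concentration producing complete growth inhibition.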

Columns and labels:
Test in all cases: DTP human tumour cell line panel, 48 h
[1] = system: DMS 273 small cell lung
[2] = system: HCC-2998 colon
[3] = system: ACHN renal
[4] = system: RPMI-8226 leukemia
[5] = system: KM20L2 colon
[6] = system: TK-10 renal
[7] = system: LOX IMVI melanoma
[8] = system: SNB-75 CNS
[9] = system: OVCAR-5 ovarian
[10] = system: XF 498 CNS
[11] = system: CAKI-1 renal
[12] = system: MOLT-4 leukemia
[13] = system: UACC-257 melanoma
[14] = system: COLO 205 colon
[15] = system: SK-MEL-5 melanoma
[16] = system: UACC-62 melanoma
[17] = system: HOP-18 NSCLC
[18] = system: SNB-78 CNS
[19] = system: A549 NSCLC
[20] = system: SW-620 colon
[21] = system: EKVX NSCLC
[22] = system: CCRF-CEM leukemia
[23] = system: A498 renal
[24] = system: OVCAR-3 ovarian
[25] = system: SNB-19 CNS
[26] = system: 786-0 renal
[27] = system: SF-295 CNS
[28] = system: KM12 colon
[29] = system: HCT-15 colon
[30] = system: LXFL 529 NSCLC
[31] = system: NCI-H226 lung
[32] = system: DLD-1 colon
[33] = system: IGROV1 ovarian
[34] = system: HL-60(TB) leukemia
[35] = system: U251 CNS
[36] = system: UO-31 renal
[37] = system: M14 melanoma
[38] = system: NCI-H460 lung
[39] = system: SK-MEL-28 melanoma
[40] = system: SF-268 CNS
[41] = system: SK-OV-3 ovarian
[42] = system: SN12C renal
[43] = system: OVCAR-8 ovarian
[44] = system: NCI-H23 lung
[45] = system: HOP-62 NSCLC
[46] = system: OVCAR-4 ovarian
[47] = system: DMS 114 small cell lung
[48] = system: SK-MEL-2 melanoma
[49] = system: NCI-H522 lung
[50] = system: M19-MEL melanoma
[51] = system: HT29 colon
[52] = system: SF-539 CNS
[53] = system: MALME-3M melanoma
[54] = system: K-562 leukemia
[55] = system: SR leukemia
[56] = system: RXF 393 renal
[57] = system: HCT-116 colon
[58] = system: HOP-92 NSCLC

COc1ccc2c(c1)[n+]([O-])c(-c1ccccc1)c(N)[n+]2[O-]
TGI [1]: > 100 µM | TGI [2]: > 100 µM | TGI [3]: > 100 µM | TGI [4]: > 100 µM | TGI [5]: > 100 µM | TGI [6]: > 100 µM | TGI [7]: > 100 µM | TGI [8]: > 100 µM | TGI [9]: > 100 µM | TGI [10]: 82.6 µM | TGI [11]: 92.3 µM | TGI [12]: > 100 µM | TGI [13]: 71.6 µM | TGI [14]: 44.4 µM | TGI [15]: 35 µM | TGI [16]: > 100 µM | TGI [17]: 97 µM | TGI [18]: > 100 µM | TGI [19]: > 100 µM | TGI [20]: > 100 µM | TGI [21]: > 100 µM | TGI [22]: > 100 µM | TGI [23]: > 100 µM | TGI [24]: > 100 µM | TGI [25]: > 100 µM | TGI [26]: > 100 µM | TGI [27]: > 100 µM | TGI [28]: > 100 µM | TGI [29]: > 100 µM | TGI [30]: 98.7 µM | TGI [31]: > 100 µM | TGI [32]: > 100 µM | TGI [33]: > 100 µM | TGI [34]: > 100 µM | TGI [35]: > 100 µM | TGI [36]: > 100 µM | TGI [37]: 78.9 µM | TGI [38]: > 100 µM | TGI [39]: 69.3 µM | TGI [40]: > 100 µM | TGI [41]: > 100 µM | TGI [42]: > 100 µM | TGI [43]: > 100 µM | TGI [44]: 61.7 µM | TGI [45]: 96.7 µM | TGI [46]: > 100 µM | TGI [47]: 79.2 µM | TGI [48]: > 100 µM | TGI [49]: 34.4 µM | TGI [50]: > 100 µM | TGI [51]: > 100 µM | TGI [52]: > 100 µM | TGI [53]: 47.2 µM | TGI [54]: > 100 µM

N#C/C(=C\c1ccc(O)c(O)c1)C(=O)NC1CCC(CC2CCC(NC(=O)/C(C#N)=C/c3ccc(O)c(O)c3)CC2)CC1 (stereo not given)
TGI [1]: 0.832 µM | TGI [2]: 7.43 µM | TGI [3]: 4.24 µM | TGI [4]: > 25.2 µM | TGI [5]: 3.81 µM | TGI [6]: > 54.7 µM | TGI [7]: 1.22 µM | TGI [8]: 1.69 µM | TGI [9]: 4.09 µM | TGI [10]: 16.5 µM | TGI [11]: > 29.3 µM | TGI [12]: > 57.5 µM | TGI [13]: > 24.3 µM | TGI [14]: 2.51 µM | TGI [55]: 3.36 µM | TGI [15]: 12.8 µM | TGI [16]: 3.07 µM | TGI [17]: > 100 µM | TGI [18]: 5.37 µM | TGI [19]: 4.56 µM | TGI [20]: 25.7 µM | TGI [21]: 45.1 µM | TGI [22]: 4.36 µM | TGI [23]: > 100 µM | TGI [24]: 3.96 µM | TGI [25]: > 29.9 µM | TGI [26]: 7.37 µM | TGI [27]: 3.55 µM | TGI [28]: 2.92 µM | TGI [29]: 32.7 µM | TGI [56]: 12.8 µM | TGI [30]: 28.1 µM | TGI [31]: 14.3 µM | TGI [32]: > 40.4 µM | TGI [34]: 6.09 µM | TGI [35]: 4.5 µM | TGI [36]: 4.97 µM | TGI [37]: 6.83 µM | TGI [38]: 1.13 µM | TGI [39]: > 100 µM | TGI [40]: 5.46 µM | TGI [41]: > 41.4 µM | TGI [42]: 7.23 µM | TGI [43]: 10.4 µM | TGI [44]: 3.89 µM | TGI [45]: 4.06 µM | TGI [46]: 40.6 µM | TGI [48]: 3.89 µM | TGI [49]: 4.71 µM | TGI [57]: 0.642 µM | TGI [50]: 5.23 µM | TGI [51]: 3 µM | TGI [58]: 6.31 µM | TGI [52]: 2.67 µM | TGI [53]: 15 µM | TGI [54]: 4.93 µM
